Values quoted from earlier work in US20030143271A1, “Drug mixture with enhanced dissolution rate” (priority 2002, published 2003).

Assays:
[1] = molecular target: platelet cyclooxygenase-1 (Homo sapiens, UniProt P23219); conditions: clinical relevance not clear
[2] = system: antiplatelet effects of the aspirin; conditions: in combination with low-dose aspirin, healthy subjects

Chain of platelet cyclooxygenase-1 (P23219 24-599): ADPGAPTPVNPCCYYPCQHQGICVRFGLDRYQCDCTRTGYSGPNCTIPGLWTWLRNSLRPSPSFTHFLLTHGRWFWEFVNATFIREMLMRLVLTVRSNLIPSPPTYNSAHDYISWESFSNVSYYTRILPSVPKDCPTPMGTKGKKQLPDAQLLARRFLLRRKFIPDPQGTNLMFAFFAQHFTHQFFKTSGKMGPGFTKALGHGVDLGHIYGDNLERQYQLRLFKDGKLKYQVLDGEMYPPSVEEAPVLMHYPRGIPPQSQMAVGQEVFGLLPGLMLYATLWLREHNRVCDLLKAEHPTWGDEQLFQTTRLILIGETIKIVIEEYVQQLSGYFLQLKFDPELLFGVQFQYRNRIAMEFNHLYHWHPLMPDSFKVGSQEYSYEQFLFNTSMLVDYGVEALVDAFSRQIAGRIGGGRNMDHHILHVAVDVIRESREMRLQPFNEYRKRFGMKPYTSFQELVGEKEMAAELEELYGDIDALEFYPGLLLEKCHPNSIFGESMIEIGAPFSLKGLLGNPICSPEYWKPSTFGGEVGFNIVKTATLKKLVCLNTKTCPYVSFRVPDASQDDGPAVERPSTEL

Row | Compound | effect on the antiplatelet activity of aspirin [1] | effect on antiplatelet effects of aspirin [2]
1 | CS(=O)(=O)c1ccc(C2=C(c3ccccc3)C(=O)OC2)cc1 [rofecoxib] | some antagonistic effect | did not alter antiplatelet effects of the aspirin
2 | Cc1onc(-c2ccccc2)c1-c1ccc(S(N)(=O)=O)cc1 [valdecoxib] | some antagonistic effect | –
